Experimental data published in the supplement of paper PMC11208160.

Assay: recombinant UMI read abundance after kanamycin selection (control-corrected) (log10(CPM+1)); higher = more efficient recombination; extreme values may be limits of the assay; sequences stand for … in AGTGCAGAGAAAATCGGCCAGTTTTCTCTGCCTGCAGTCCGCATGCCGTGGGACCCCTTGGGTTCTAACCTGTTGCCTAGATTTATGCAGCGGACTGCCTTTCTCCCAAAGTGATAAACCGG…AGGTTGGTTTCACT; site = the 11-nt donor
Procedure, shortened: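 Values are reported as log10(CPM+1), obtained by converting sequencing counts to CPM, averaging replicates and scaling by control-derived factors. The counts came from recombinant UMIs amplified by PCR across the donor–target junction. These UMIs came from a pooled Escherichia coli screen of donor and donor-binding-loop pairs for the IS621 bridge recombinase, plated with IPTG (0.07 mM) plus kanamycin or left unselected, in two replicates each.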
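Further: IS621 bridge recombinase in Escherichia coli cells against a fixed T5 target plasmid.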

Sequence | recombinant UMI read abundance (log10)
CCAGATGCATGGACCGGTTTTCCCGGTAATCCGTATTTGAT (site CCAGATGCTAT) | 1.26
CCAGATGCATGGACCGGTTTTCCCGGTAATCCGTATTTGAT (site CCAGCTGCTAT) | 0.00516
CCAGATGCATGGACCGGTTTTCCCGGTAATCCGTATTTGAT (site CCAGGTGCTAT) | 0.261
CCAGATGCATGGACCGGTTTTCCCGGTAATCCGTATTTGAT (site CCAGTTGCTAT) | 0.00471
CCAGCCCCATGGACCGGTTTTCCCGGTAATCCGTATTTGCC (site CCAGCCCCTGG) | 0.451
CCAGGATCATGGACCGGTTTTCCCGGTAATCCGTATTTGCA (site ACAGTATCTTG) | 0
CCAGGATCATGGACCGGTTTTCCCGGTAATCCGTATTTGCA (site CCAGGATCTTG) | 0.424
CCAGGTGCATGGACCGGTTTTCCCGGTAATCCGTATTTGAT (site ACAGGTGCTAT) | 0.0184
CCAGGTGCATGGACCGGTTTTCCCGGTAATCCGTATTTGAT (site CAAGGTGCTAT) | 0.441
CCAGGTGCATGGACCGGTTTTCCCGGTAATCCGTATTTGAT (site CCAAGTGCTAT) | 1.24
CCAGGTGCATGGACCGGTTTTCCCGGTAATCCGTATTTGAT (site CCACGTGCTAT) | 0.497
CCAGGTGCATGGACCGGTTTTCCCGGTAATCCGTATTTGAT (site CCAGATGCTAT) | 1.74
CCAGGTGCATGGACCGGTTTTCCCGGTAATCCGTATTTGAT (site CCAGCTGCTAT) | 0.00488
CCAGGTGCATGGACCGGTTTTCCCGGTAATCCGTATTTGAT (site CCAGGAGCTAT) | 0.984
CCAGGTGCATGGACCGGTTTTCCCGGTAATCCGTATTTGAT (site CCAGGCGCTAT) | 0.436
CCAGGTGCATGGACCGGTTTTCCCGGTAATCCGTATTTGAT (site CCAGGGGCTAT) | 1.32
CCAGGTGCATGGACCGGTTTTCCCGGTAATCCGTATTTGAT (site CCAGGTACTAT) | 0.835
CCAGGTGCATGGACCGGTTTTCCCGGTAATCCGTATTTGAT (site CCAGGTCCTAT) | 0
CCAGGTGCATGGACCGGTTTTCCCGGTAATCCGTATTTGAT (site CCAGGTGCTAA) | 0.0192
CCAGGTGCATGGACCGGTTTTCCCGGTAATCCGTATTTGAT (site CCAGGTGCTAC) | 0.227
CCAGGTGCATGGACCGGTTTTCCCGGTAATCCGTATTTGAT (site CCAGGTGCTAG) | 0
CCAGGTGCATGGACCGGTTTTCCCGGTAATCCGTATTTGAT (site CCAGGTGCTAT) | 1.32
CCAGGTGCATGGACCGGTTTTCCCGGTAATCCGTATTTGAT (site CCAGGTGCTCT) | 0.00956
CCAGGTGCATGGACCGGTTTTCCCGGTAATCCGTATTTGAT (site CCAGGTGCTGT) | 0
CCAGGTGCATGGACCGGTTTTCCCGGTAATCCGTATTTGAT (site CCAGGTGCTTT) | 0.206

Sequence | recombinant UMI read abundance (log10)
CCAGGTGCATGGACCGGTTTTCCCGGTAATCCGTATTTGAT (site CCAGGTTCTAT) | 0.204
CCAGGTGCATGGACCGGTTTTCCCGGTAATCCGTATTTGAT (site CCAGTTGCTAT) | 0.00491
CCAGGTGCATGGACCGGTTTTCCCGGTAATCCGTATTTGAT (site CCATGTGCTAT) | 0.018
CCAGGTGCATGGACCGGTTTTCCCGGTAATCCGTATTTGAT (site CCCGGTGCTAT) | 0.433
CCAGGTGCATGGACCGGTTTTCCCGGTAATCCGTATTTGAT (site CCGGGTGCTAT) | 1.47
CCAGGTGCATGGACCGGTTTTCCCGGTAATCCGTATTTGAT (site CCTGGTGCTAT) | 0
CCAGGTGCATGGACCGGTTTTCCCGGTAATCCGTATTTGAT (site CGAGGTGCTAT) | 0.0036
CCAGGTGCATGGACCGGTTTTCCCGGTAATCCGTATTTGAT (site CTAGGTGCTAT) | 0.629
CCAGGTGCATGGACCGGTTTTCCCGGTAATCCGTATTTGAT (site GCAGGTGCTAT) | 0.00654
CCAGGTGCATGGACCGGTTTTCCCGGTAATCCGTATTTGAT (site TCAGGTGCTAT) | 0.0184
CCATCATCATGGACCGGTTTTCCCGGTAATCCGTATTTGCT (site CAATCATCTAG) | 0
CCATCATCATGGACCGGTTTTCCCGGTAATCCGTATTTGCT (site CCATCATCTAG) | 0
CCATCATCATGGACCGGTTTTCCCGGTAATCCGTATTTGCT (site CGATCATCTAG) | 0
CCATCATCATGGACCGGTTTTCCCGGTAATCCGTATTTGCT (site CTATCATCTAG) | 0.0047
CCATCATCATGGACCGGTTTTCCCGGTAATCCGTATTTGTT (site CCATCATCTAA) | 0.00419
CCATCATCATGGACCGGTTTTCCCGGTAATCCGTATTTGTT (site CGATCATCTAG) | 0
CCATCGGCATGGACCGGTTTTCCCGGTAATCCGTATTTGTG (site CCATCGGCTCA) | 1.73
CCATCTTCATGGACCGGTTTTCCCGGTAATCCGTATTTGCT (site CCATCTTCTAG) | 0.0559
CCATCTTCATGGACCGGTTTTCCCGGTAATCCGTATTTGCT (site CGATCATCTAG) | 0
CCATGACCATGGACCGGTTTTCCCGGTAATCCGTATTTGGA (site CCATGACCTTC) | 0.023
CCATGCTCATGGACCGGTTTTCCCGGTAATCCGTATTTGAA (site CAATGCTCTTT) | 0.0121
CCATGCTCATGGACCGGTTTTCCCGGTAATCCGTATTTGAA (site CCATGCTCTTT) | 0.703
CCATGCTCATGGACCGGTTTTCCCGGTAATCCGTATTTGAA (site CGATGCTCTTT) | 0.0134
CCATGCTCATGGACCGGTTTTCCCGGTAATCCGTATTTGAA (site CTATGCTCTTT) | 0.015
CCATGTGCATGGACCGGTTTTCCCGGTAATCCGTATTTGAT (site CCAAGTGCTAT) | 0.00273

Sequence | recombinant UMI read abundance (log10)
CCATGTGCATGGACCGGTTTTCCCGGTAATCCGTATTTGAT (site CCACGTGCTAT) | 0.215
CCATGTGCATGGACCGGTTTTCCCGGTAATCCGTATTTGAT (site CCAGGTGCTAT) | 0.00344
CCATGTGCATGGACCGGTTTTCCCGGTAATCCGTATTTGAT (site CCATGTGCTAT) | 1.09
CCATTAGCATGGACCGGTTTTCCCGGTAATCCGTATTTGTG (site CCATTAGCTCA) | 0.183
CCATTAGCATGGACCGGTTTTCCCGGTAATCCGTATTTGTG (site CCCTTAGCTCA) | 0.00634
CCATTAGCATGGACCGGTTTTCCCGGTAATCCGTATTTGTG (site CCGTTAGCTCA) | 0.0308
CCATTAGCATGGACCGGTTTTCCCGGTAATCCGTATTTGTG (site CCTTTAGCTCA) | 0.0119
CCATTCCCATGGACCGGTTTTCCCGGTAATCCGTATTTGAC (site CCATTCCCTGT) | 0
CCATTTGCATGGACCGGTTTTCCCGGTAATCCGTATTTGGC (site CCATTTGCTGC) | 0
CCCAAAGCATGGACCGGTTTTCCCGGTAATCCGTATTTGAT (site CCAAAAGCTAT) | 0
CCCAAAGCATGGACCGGTTTTCCCGGTAATCCGTATTTGAT (site CCCAAAGCTAT) | 0.774
CCCAAAGCATGGACCGGTTTTCCCGGTAATCCGTATTTGAT (site CCGAAAGCTAT) | 0
CCCAAAGCATGGACCGGTTTTCCCGGTAATCCGTATTTGAT (site CCTAAAGCTAT) | 0.00406
CCCAATACATGGACCGGTTTTCCCGGTAATCCGTATTTGGC (site CCAAATACTGC) | 0
CCCAATACATGGACCGGTTTTCCCGGTAATCCGTATTTGGC (site CCCAATACTGC) | 0
CCCAATACATGGACCGGTTTTCCCGGTAATCCGTATTTGGC (site CCGAATACTGC) | 0
CCCAATACATGGACCGGTTTTCCCGGTAATCCGTATTTGGC (site CCTAATACTGC) | 0
CCCACATCATGGACCGGTTTTCCCGGTAATCCGTATTTGTC (site CCCAAATCTGA) | 0
CCCACATCATGGACCGGTTTTCCCGGTAATCCGTATTTGTC (site CCCACATCTGA) | 0.453
CCCACATCATGGACCGGTTTTCCCGGTAATCCGTATTTGTC (site CCCAGATCTGA) | 0
CCCACATCATGGACCGGTTTTCCCGGTAATCCGTATTTGTC (site CCCATATCTGA) | 0
CCCATAGCATGGACCGGTTTTCCCGGTAATCCGTATTTGTC (site CCCATAACTGA) | 0.433
CCCATAGCATGGACCGGTTTTCCCGGTAATCCGTATTTGTC (site CCCATACCTGA) | 0
CCCATAGCATGGACCGGTTTTCCCGGTAATCCGTATTTGTC (site CCCATAGCTGA) | 1.56
CCCATAGCATGGACCGGTTTTCCCGGTAATCCGTATTTGTC (site CCCATATCTGA) | 0
